# Earlier results in patent publication US8216495B2, “Preparation method for solid dispersions” (Formac Pharmaceuticals N.V., priority 2008, dated 2012).
# How the values were obtained:
# [1] = weak base
# [2] = not given; remark: listed apart in the source
compound,measurement,setting,value
CCC(C)n1ncn(-c2ccc(N3CCN(c4ccc(OCC5COC(Cn6cncn6)(c6ccc(Cl)cc6Cl)O5)cc4)CC3)cc2)c1=O (stereo not drawn) [Itraconazole],pKa,[1],4.0
same,aqueous solubility,pH=1,4 µg/mL
CC(=O)O[C@H]1C(=O)[C@@]2(C)[C@H]([C@H](OC(=O)c3ccccc3)[C@]3(O)C[C@H](OC(=O)[C@H](O)[C@@H](NC(=O)c4ccccc4)c4ccccc4)C(C)=C1C3(C)C)[C@]1(OC(C)=O)CO[C@@H]1C[C@@H]2O [Paclitaxel],solubility in water,,insoluble
"NC(=O)N1c2ccccc2C=Cc2ccccc21 [Carbamazepine, 5H-dibenz[b,f]azepine-5-carboxamide]",solubility in alcohol and acetone,alcohol and acetone,soluble
same,solubility in water,,practically insoluble
C=CC[C@@H]1/C=C(\C)C[C@H](C)C[C@H](OC)[C@H]2O[C@@](O)(C(=O)C(=O)N3CCCC[C@H]3C(=O)O[C@H](/C(C)=C/[C@@H]3CC[C@@H](O)[C@H](OC)C3)[C@H](C)[C@@H](O)CC1=O)[C@H](C)C[C@@H]2OC [Tacrolimus],solubility in ethanol,ethanol,freely soluble
same,solubility in methanol and chloroform,methanol and chloroform,very soluble
same,solubility in water,,practically insoluble
same,absolute bioavailability,"[2]; 5 mg dose taken twice a day, oral",approximately 17%
"C#C[C@]1(O)CC[C@H]2[C@@H]3CCC4=Cc5oncc5C[C@]4(C)[C@H]3CC[C@@]21C [Danazol, 17a-Pregna-2,4-dien-20-yno[2,3-d]-isoxazol-17-ol]",half-life,[2]; danazol administered orally,4 to 5 h
same,increase in plasma concentration on doubling the dose,[2]; danazol administered orally,30-40%
same,time of peak concentrations,[2]; danazol administered orally,≤ 2 h
